Measured values as given in publication PMC6982876, “Synthesis of Novel Benzodifuranyl; 1,3,5-Triazines; 1,3,5-Oxadiazepines; and Thiazolopyrimidines Derived from Visnaginone and Khellinone as Anti-Inflammatory and Analgesic Agents” (Molecules, 2020).
Marks after values point to notes of the source that are not given here.

Experiments:
ovine COX-1 = molecular target: T1, ovine COX-1 (Ovis aries, UniProt P05979); test: In vitro COX inhibitor screening assay (EIA kit, Cayman), COX-1; assay type: biochemical; settings: mean of two determinations, enzyme kit, read-out: COX1 IC50
T1 construct: purchased Cayman Chemical, Ann Arbor, MI, USA 560131
T1 sequence (P05979 25-600): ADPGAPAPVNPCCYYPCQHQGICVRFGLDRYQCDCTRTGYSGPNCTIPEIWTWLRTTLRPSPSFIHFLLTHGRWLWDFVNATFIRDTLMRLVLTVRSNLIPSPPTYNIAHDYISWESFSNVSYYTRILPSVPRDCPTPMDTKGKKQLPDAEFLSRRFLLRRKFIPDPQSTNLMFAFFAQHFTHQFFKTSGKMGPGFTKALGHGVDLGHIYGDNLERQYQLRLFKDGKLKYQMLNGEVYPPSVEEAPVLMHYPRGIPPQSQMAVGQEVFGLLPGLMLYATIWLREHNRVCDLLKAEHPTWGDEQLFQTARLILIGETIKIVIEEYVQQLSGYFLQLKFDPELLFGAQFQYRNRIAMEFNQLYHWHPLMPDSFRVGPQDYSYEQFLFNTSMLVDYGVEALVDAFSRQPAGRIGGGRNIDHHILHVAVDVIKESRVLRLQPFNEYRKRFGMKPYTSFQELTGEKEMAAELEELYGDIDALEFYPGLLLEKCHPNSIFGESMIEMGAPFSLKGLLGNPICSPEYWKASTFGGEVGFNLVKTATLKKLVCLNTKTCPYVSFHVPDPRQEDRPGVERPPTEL
Protocol: (§1) Furthermore, the selectivity index for COX-2 (COX-1 IC50 / COX-2 IC50) was calculated for the compounds.

human recombinant COX-2 = molecular target: T2, human recombinant COX-2 (Homo sapiens, UniProt P35354); test: In vitro COX inhibitor screening assay (EIA kit, Cayman), COX-2; assay type: biochemical; settings: for COX2 (SI) selectivity index: COX-1 IC50 / COX-2 IC50; for IC50: COX-2, mean of two determinations, enzyme kit, read-out: COX2 IC50
T2 construct: purchased Cayman Chemical, Ann Arbor, MI, USA 560131
T2 sequence (P35354 18-604): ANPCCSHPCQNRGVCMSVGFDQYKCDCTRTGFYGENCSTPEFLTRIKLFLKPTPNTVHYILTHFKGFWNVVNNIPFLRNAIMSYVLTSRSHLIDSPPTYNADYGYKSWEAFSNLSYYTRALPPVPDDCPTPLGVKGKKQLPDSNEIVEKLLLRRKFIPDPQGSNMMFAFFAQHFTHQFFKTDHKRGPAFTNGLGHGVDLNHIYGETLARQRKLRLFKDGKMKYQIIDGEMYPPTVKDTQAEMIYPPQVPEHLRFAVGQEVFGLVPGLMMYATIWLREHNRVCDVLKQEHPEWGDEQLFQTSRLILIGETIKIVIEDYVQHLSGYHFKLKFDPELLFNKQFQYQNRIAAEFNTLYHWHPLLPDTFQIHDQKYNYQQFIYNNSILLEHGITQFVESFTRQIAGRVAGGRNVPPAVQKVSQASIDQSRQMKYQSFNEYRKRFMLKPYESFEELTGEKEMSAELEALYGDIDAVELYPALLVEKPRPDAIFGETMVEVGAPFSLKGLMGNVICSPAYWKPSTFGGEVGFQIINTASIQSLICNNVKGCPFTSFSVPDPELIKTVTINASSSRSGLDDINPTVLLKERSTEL
Protocol: as §1

[1] = system: acetic acid-induced writhing in mice; test: Acetic acid-induced writhing test (analgesic activity); assay type: in vivo; settings: 10 mg/kg p.o., n = 5; for Writhing Number in 20 min (Mean ± SEM): acetic acid 1 h after dosing; for Analgesic Activity (% protection): writhing test
Method in brief: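 Mice of 25–30 g, fasted 8 h, given compound at 10 mg/kg p.o., five animals per group. One hour later, 1% acetic acid i.p. (0.1 mL/10 g); writhes counted over 20 min. Percent protection calculated against the saline control group.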

[2] = system: carrageenan-induced paw edema in rats; test: Carrageenan-induced paw edema (anti-inflammatory activity); assay type: in vivo; settings: 10 mg/kg oral; for % Change in Paw Height (Mean ± SEM): n = 5
Method in brief: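 Albino rats weighing 150–180 g, in groups of five, received test compounds orally at 10 mg/kg; one hour later 0.1 mL of 1% carrageenan was injected into the left hind paw. Paw inflammation height was measured by digital caliber plethysmometer at 0, 1, 2 and 3 h, expressed as percentage increase relative to the uninjected right paw, with percentage edema inhibition versus control calculated at 3 h.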

[3] = system: interleukin-1 beta (IL-1 β); test: ELISA of serum interleukin-1 beta after paw edema test; assay type: in vivo, rats; settings: rat serum at the end of the paw edema test, mean ± SEM, n = 5
Protocol: IL1 is one of the important inflammatory mediators and is used to confirm the anti-inflammatory activities of new anti-inflammatory compounds. At the end of the paw edema test, blood samples were collected from the orbital axis of the eye under light ether anesthesia. Sera were separated after centrifugation of blood at 5000 rpm for 15 min; the sera were stored at –80 °C until the ELISA assay was performed according to the manufacturer instructions.

Row | SMILES | IC50 (ovine COX-1) | COX2 (SI) selectivity index (human recombinant COX-2) | IC50 (human recombinant COX-2) | Writhing Number in 20 min (Mean ± SEM) [1] | Analgesic Activity (% protection) [1] | % Change in Paw Height (Mean ± SEM) ([2]; 1 hr after carrageenan) | % Change in Paw Height (Mean ± SEM) ([2]; 2 hr after carrageenan) | Anti-Inflammatory Activity (% Inhibition of Edema) ([2]; 3 hr after carrageenan) | % Change in Paw Height (Mean ± SEM) ([2]; 3 hr after carrageenan) | IL-1 β Concentration [3] | melting point
1 | COc1c2ccoc2cc2oc(C3=NC4=CC(=O)N5C(=O)C(=Cc6ccccc6)SC5N4C(=O)C(=Cc4ccccc4)O3)c(C)c12 (stereo not drawn) [Compound 13a, 2,10-di(benzylidene)-8-(4-methoxy-3-methylbenzo[1,2-b:5,4-b`]difuran-2-yl)-5H,12aH-thiazolo[2’,3’:2,3]pyrimido[6,1-d][1,3,5]oxadiazepine-3,5,11(2H,10H)-trione] | 5790 nM | 90 | 64 nM | 33 ± 1.9 ^a | 42 ± 1.90 ^a % | 0.27 ± 0.02 ^a % | 0.21 ± 0.01 ^a % | 59% | 0.24 ± 0.01 ^a % | 39 ± 0.31 ^b Pg /mL | > 350 °C
2 | COc1c2ccoc2cc2oc(C3=NC4=CC(=O)N5C(=O)C(=Cc6ccc(Cl)cc6)SC5N4C(=O)C(=Cc4ccc(Cl)cc4)O3)c(C)c12 (stereo not drawn) [Compound 13b, 2,10-bis(4-chlorobenzylidene)-8-(4-methoxy-3-methylbenzo[1,2-b:5,4-b`]difuran-2-yl)-5H, 12aH-thiazolo[2’,3’:2,3]pyrimido[6,1-d][1,3,5]oxadiazepine-3,5,11(2H,10H)-trione] | 5200 nM | 95 | 55 nM | 29 ± 1.5 ^a | 46 ± 1.6 ^a % | 0.23 ± 0.02 ^a % | 0.18 ± 0.01 ^a % | 63% | 0.20 ± 0.02 ^a % | 35 ± 0.28 ^b Pg /mL | > 350 °C
3 | COc1ccc(C=C2OC(c3oc4cc5occc5c(OC)c4c3C)=NC3=CC(=O)N4C(=O)C(=Cc5ccc(OC)cc5)SC4N3C2=O)cc1 (stereo not drawn) [Compound 13c, 8-(4-methoxy-3-methylbenzo[1,2-b:5,4-b`]difuran-2-yl)-2,10-bis(4-methoxybenzylidene)-5H,12aH-thiazolo[2’,3’:2,3]pyrimido[6,1-d][1,3,5]oxadiazepine-3,5,11(2H,10H)-trione] | 5520 nM | 92 | 60 nM | 31 ± 1.1 ^a | 44 ± 0.85 ^a % | 0.25 ± 0.01 ^a % | 0.19 ± 0.02 ^a % | 61% | 0.22 ± 0.02 ^a % | 37 ± 0.57 ^b Pg /mL | > 350 °C
4 | COc1c2occc2c(OC)c2c(C)c(C3=NC4=CC(=O)N5C(=O)C(=Cc6ccccc6)SC5N4C(=O)C(=Cc4ccccc4)O3)oc12 (stereo not drawn) [Compound 13d, 2,10-di(benzylidene)-8-(4,8-dimethoxy-3-methylbenzo[1,2-b:5,4-b`]difuran-2-yl)-5H, 12aH -thiazolo[2’,3’:2,3]pyrimido[6,1-d][1,3,5]oxadiazepine-3,5,11(2H,10H)-trione] | 5710 nM | 91 | 63 nM | 32 ± 1.4 ^a | 43 ± 1.90 ^a % | 0.26 ± 0.01 ^a % | 0.20 ± 0.02 ^a % | 60% | 0.23 ± 0.02 ^a % | 38 ± 0.62 ^b Pg /mL | > 350 °C
5 | COc1c2occc2c(OC)c2c(C)c(C3=NC4=CC(=O)N5C(=O)C(=Cc6ccc(Cl)cc6)SC5N4C(=O)C(=Cc4ccc(Cl)cc4)O3)oc12 (stereo not drawn) [Compound 13e, 2,10-bis(4-chlorobenzylidene)-8-(4,8-dimethoxy-3-methylbenzo[1,2-b:5,4-b`]difuran-2-yl)-5H,12aH-thiazolo[2’,3’:2,3]pyrimido[6,1-d][1,3,5]oxadiazepine-3,5,11(2H,10H)-trione] | 5100 nM | 96 | 53 nM | 28 ± 1.3 ^a | 47 ± 1.7 ^a % | 0.22 ± 0.01 ^a % | 0.17 ± 0.02 ^a % | 64% | 0.19 ± 0.02 ^a % | 34 ± 0.33 ^b Pg /mL | > 350 °C
6 | COc1ccc(C=C2OC(c3oc4c(OC)c5occc5c(OC)c4c3C)=NC3=CC(=O)N4C(=O)C(=Cc5ccc(OC)cc5)SC4N3C2=O)cc1 (stereo not drawn) [Compound 13f, 8-(4,8-dimethoxy-3-methylbenzo[1,2-b:5,4-b`]difuran-2-yl)-2,10-bis(4-methoxybenzylidene)-5H,12aH-thiazolo[2’,3’:2,3]pyrimido[6,1-d][1,3,5]oxadiazepine-3,5,11(2H,10H)-trione] | 5450 nM | 94 | 58 nM | 30 ± 1.8 ^a | 45 ± 0.95 ^a % | 0.24 ± 0.02 ^a % | 0.18 ± 0.02 ^a % | 62% | 0.21 ± 0.01 ^a % | 36 ± 0.25 ^b Pg /mL | > 350 °C
